Consider four compounds from patent publication US10195186B2.

For one test, the target named is hSortilin (Homo sapiens (Human), UniProt Q99523). In words: hSortilin affinity assay: displacement of 3H-neurotensin binding, SPA format. Particulars: read-out: hSortilin NTS Binding, Inhibition at 50 μM.
The target of test [1] is human sortilin (S-18 cells) (Homo sapiens (Human), UniProt Q99523). In words: Endogenous PGRN endocytosis assay (PGRN ELISA of media). Particulars: PGRN allowed to accumulate 24 hrs, compounds added day 2, further 24 hrs. The test is classed as cell-based.
human sortilin (S-18 cells), sequence (Q99523 78-831): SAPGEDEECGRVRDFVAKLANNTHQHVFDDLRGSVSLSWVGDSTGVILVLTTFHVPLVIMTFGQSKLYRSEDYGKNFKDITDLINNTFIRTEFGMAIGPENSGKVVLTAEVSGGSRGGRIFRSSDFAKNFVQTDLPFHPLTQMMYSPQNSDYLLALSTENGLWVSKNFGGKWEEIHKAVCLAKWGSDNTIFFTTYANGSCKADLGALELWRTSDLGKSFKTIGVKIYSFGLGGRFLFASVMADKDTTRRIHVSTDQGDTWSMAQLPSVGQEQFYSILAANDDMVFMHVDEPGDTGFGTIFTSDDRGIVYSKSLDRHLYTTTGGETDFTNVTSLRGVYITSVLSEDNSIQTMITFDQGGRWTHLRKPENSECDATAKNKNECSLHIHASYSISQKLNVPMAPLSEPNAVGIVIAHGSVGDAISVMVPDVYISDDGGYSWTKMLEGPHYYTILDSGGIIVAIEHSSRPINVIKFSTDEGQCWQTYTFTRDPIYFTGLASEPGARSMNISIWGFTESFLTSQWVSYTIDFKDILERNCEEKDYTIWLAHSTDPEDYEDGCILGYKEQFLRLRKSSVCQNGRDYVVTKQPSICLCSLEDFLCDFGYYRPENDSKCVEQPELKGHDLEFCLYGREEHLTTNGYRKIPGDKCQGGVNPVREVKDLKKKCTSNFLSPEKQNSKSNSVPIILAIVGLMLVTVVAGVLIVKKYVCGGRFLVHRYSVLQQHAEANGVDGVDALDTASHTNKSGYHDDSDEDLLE
Protocol: Stable cell lines expressing human sortilin (S-18) were generated by transfecting HEK293 cells with a human sortilin expression vector, followed by few rounds of passage with the appropriate selection agent.
On day1, S-18 cells are seeded in a 96 well plate. After 24 hrs, media is completely replaced with either media or one of the test compounds. All compounds were tested at 10 μM unless otherwise specified. Media is collected on day 3 and analyzed using PGRN ELISA (R&D). Cell viability is assessed by Cell TiterGlo (ProMega) to evaluate cytotoxic effect of the compounds.
On day 2, the compounds are added to the cells and incubated for a further 24 hrs, when the media is harvested and PGRN levels analyzed using ELISA kit.

hSortilin, sequence (Q99523 34-755): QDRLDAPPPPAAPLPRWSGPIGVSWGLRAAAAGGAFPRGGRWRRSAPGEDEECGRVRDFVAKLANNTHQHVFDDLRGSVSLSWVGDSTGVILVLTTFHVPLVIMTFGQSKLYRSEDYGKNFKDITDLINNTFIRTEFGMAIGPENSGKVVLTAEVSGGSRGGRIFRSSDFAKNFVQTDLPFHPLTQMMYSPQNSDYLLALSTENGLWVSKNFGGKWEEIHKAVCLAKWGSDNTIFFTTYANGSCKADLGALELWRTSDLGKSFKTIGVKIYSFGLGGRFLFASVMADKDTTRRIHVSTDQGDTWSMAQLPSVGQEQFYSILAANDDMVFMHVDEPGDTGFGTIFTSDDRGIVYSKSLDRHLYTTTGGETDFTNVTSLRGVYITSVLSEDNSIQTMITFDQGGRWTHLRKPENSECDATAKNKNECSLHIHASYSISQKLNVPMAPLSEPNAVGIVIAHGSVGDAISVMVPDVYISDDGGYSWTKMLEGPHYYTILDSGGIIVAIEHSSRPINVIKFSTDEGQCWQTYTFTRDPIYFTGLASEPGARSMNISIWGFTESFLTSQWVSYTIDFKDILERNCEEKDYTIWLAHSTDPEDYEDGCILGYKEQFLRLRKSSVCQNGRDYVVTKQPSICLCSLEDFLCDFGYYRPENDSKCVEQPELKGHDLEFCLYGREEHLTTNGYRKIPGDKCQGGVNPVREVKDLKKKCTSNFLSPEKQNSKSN

Consider `Cc1cccnc1NC(=O)c1ccc(Br)cc1C(=O)O` [Example 27, 5-Bromo-N-(3-methyl-pyridin-2-yl)-phthalamic acid], for which, on hSortilin, the inhibition at 50 µM was 64%. Same read-out and setting: then `Cc1ccc(NC(=O)c2ccc(Br)cc2C(=O)O)cn1` [Example 31, 5-Bromo-N-(6-methyl-pyridin-3-yl)-phthalamic acid], with 70%. For “scrambled neurotensin: scrambled neurotensin, sequence LIYPRNEYELRKP (SEQ ID NO:1); does not bind sortilin, negative control (Scrambled Human Neurotensin) [reference compound]”, the “PGRN levels in cell culture media, competition paradigm (FIG. 1)” value in test [1] was “did not have any effect”. Take `Cc1cccc(NC(=O)c2ccc(C(F)(F)F)cc2C(=O)O)n1` [Example 1, N-(6-Methyl-pyridin-2-yl)-5-trifluoromethyl-phthalamic acid]: the “PGRN levels in cell culture media, competition paradigm (FIG. 1)” value in test [1] is recorded as “increase in PGRN levels”.
